Laboratory results from patent US9302085B2, “Methods and compositions for facilitating arterial access” (The Regents of the University of California, priority 2009, dated 2016).
“Also recorded” adds a separate entry of the source.

Test system: radial artery
Assay: Radial artery diameter measured with ultrasound after topical application to the wrist
Assay type: in vivo, human
Details: for effect on the vasodilatory action of nitroglycerin: adjacent skin sites
Description: A dose escalation study of topical nitroglycerin was performed. Twenty healthy volunteers were selected based on the following inclusion criteria: willing and able to give written informed consent and comply with study requirements; and able to speak English. In addition, the subjects were selected based on the following exclusion criteria: presence or history of liver, cardiovascular, rheumatologic, cancer or renal disease; current treatment with any vasodilator therapy; systolic blood pressure of less than 90 mmHg; history of radial artery catheterization within the previous year; absence of radial artery blood flow in one or both arms; pregnancy; and active infection.
Each of the twenty selected subjects received either 15 mg or 30 mg of nitroglycerin (Nitro-Bid 2% ointment, 1 or 2 inches, E Fougera & Co, NY) applied to one wrist and a placebo (sorbolene cream) applied to the other wrist. Applications were performed as single-blind (subject) experiments. Radial artery diameter was measured with ultrasound before application of the topical compositions and at time intervals after application of the topical compositions. The subjects were tested again at a later date, where they received the alternate dose of nitroglycerin on one wrist and the placebo on the other wrist.
The same subjects received topical applications of nitroglycerin (30 mg) with either 20 mg or 40 mg of lidocaine topical cream (LMX 4%, Ferndale, Mich.). The nitroglycerin and lidocaine were applied at adjacent skin sites on the wrist.

Structure (SMILES)	effect on the vasodilatory action of nitroglycerin (20 mg lidocaine topical cream with 30 mg nitroglycerin, FIG. 2)	effect on the vasodilatory action of nitroglycerin (40 mg lidocaine topical cream with 30 mg nitroglycerin, FIG. 3)	effect on arterial diameter (lidocaine alone, topical, FIG. 3)	increase in radial artery diameter compared to the placebo (15 mg nitroglycerin topical on one wrist, healthy volunteers, FIG. 1)	increase in radial artery diameter (30 mg nitroglycerin topical on one wrist, healthy volunteers, FIG. 1)	duration of the increase in radial artery diameter (30 mg nitroglycerin topical, 2-hour application)	vasodilation (radial artery diameter versus time) (30 mg nitroglycerin topical, FIG. 1)	diameter of the radial artery in the contralateral wrist (topical nitroglycerin on the other wrist)
CCN(CC)CC(=O)Nc1c(C)cccc1C [lidocaine]	no detectable effect	did not prevent the vasodilation; also recorded: no detectable effect	no appreciable effect					
O=[N+]([O-])OCC(CO[N+](=O)[O-])O[N+](=O)[O-] [nitroglycerin]				did not significantly increase	approximately 25%	maintained during the 2-hour application	significant vasodilation	did not affect
